According to patent US20190359560A1, “ANTI-INFLAMMATORY DRUG AND USES THEREOF” (KYUSHU UNIVERSITY, NATIONAL UNIVERSITY CORPORATION, priority 2015, published 2019):

Key:
[1] = test system: G0S2 promoter (−2030→+10); experiment: G0S2 promoter (−2030→+10) luciferase assay in Hepa1-6 cells; format: cell-based, mouse; conditions: Hepa1-6 reporter cells, 10 μM, 24 hours
Experimental: To get closer to the environment in the liver, a cell stably expressing an expression cassette in which a luciferase gene was ligated to the downstream side of the G0S2 promoter (−2030→+10) was constructed in the Hepa1-6 cell, which is a mouse hepatoma-derived cell. Using this cell, an effect of the candidate compounds on the luciferase activity was evaluated in the same manner as in the primary screening described above.

[2] = test system: nuclear receptor RARα mRNA; experiment: RARα mRNA expression in Hepa1-6 cells (qRT-PCR); format: cell-based, mouse; conditions: 10 μM, 24 hours
G0S2 promoter = G0S2 promoter luciferase activity in O-4000E cell line, IC50; format: cell-based, mouse; conditions: O-4000E cells, 24 hours after exposure
Experimental: The present inventors have searched for a G0S2 gene transcription inhibitor. In searching, the present inventors have received a compound library consisting of 9600 compounds (Core library) from the Open Innovation Center for Drug Discovery, The University of Tokyo. For this compound library, primary screening was carried out by evaluating an effect of compounds on a luciferase activity using a 384-well plate. The drug efficacy evaluation was studied three times for each compound (final concentration of 10 μM) using a cell line stably expressing an expression cassette in which a luciferase gene was ligated to the downstream side of the G0S2 promoter (−2030→−1378), and compounds which reduced a luciferase activity to less than ¼ were extracted from all studies. As a result, 175 compounds were hit.
For the evaluation of drug efficacy of Compound Nos. 1 and 2, which are hit compounds, an IC50 was calculated. The O-4000E cell line was seeded, and Compound Nos. 1 and 2 were serially diluted in […] so as to have final concentrations of 0.15625 μM to 10 μM, followed by exposure of the cells to the compounds. The luciferase activity was measured 24 hours after the exposure, and the curve fitting was carried out to calculate an IC50 of the compounds.
Detailed drug efficacy evaluation at low concentrations was carried out for the compound of Example 2 (NS-3-011) whose drug efficacy at a concentration of less than 10 μM was observed based on the studies so far and which is expected to have an effect equal to or more than that of Compound No. 2. First, using O-4000E cells, IC50 of Compound No. 2 and the compound of Example 2 (NS-3-011) on the G0S2 promoter activity was calculated.

Ccl2 mRNA = experiment: LPS hepatitis model mouse: Ccl2 mRNA in liver; format: in vivo
Experimental: Next, whether or not Compound No. 2 whose effect in vivo was confirmed has an effect to antagonize the activation of an inflammatory signal was examined. Hepa1-6 cells were exposed to Compound No. 2 at a dose of 10 μM simultaneously with exposure to lipopolysaccharide (LPS) or TNFα which activates NF-κB for which the G0S2 protein acts as a regulator. As shown in FIGS. 10A and 10B, the cells were recovered 12 hours after the exposure and the expression level of Ccl2 mRNA was measured. […] In addition, 25 μg of LPS was administered to the tail vein of a mouse to thereby construct a hepatitis model. 30 minutes after the administration of LPS, Compound No. 2 (5 mg/kg) was administered to the tail vein of the mouse, and the liver was sampled at 6 hours.
LPS (10 μg/mouse) was administered to ICR male mice by tail vein injection to prepare an LPS-administered group. […]
In addition, for the liver of mice of each group, the expression level of mRNA of Ccl2, which is a target gene of NF-κB, was quantified by real-time PCR. FIG. 11C is a graph showing the quantitative results of the expression level of mRNA of Ccl2.
10 μg of LPS was intraperitoneally administered to mice to construct a hepatitis model. […] 5 hours after the administration of each compound, the liver was harvested from each mouse and the expression level of Ccl2 was quantified by real-time PCR.

p65 protein (NF-κB) = experiment: LPS-administered mice: nuclear abundance of p65 protein in liver (Western blotting); format: in vivo; conditions: LPS 10 μg/mouse tail vein; 5 mg/kg subcutaneous 1 hour after LPS; liver 5 hours later; vs LPS group
Experimental: LPS (10 μg/mouse) was administered to ICR male mice by tail vein injection to prepare an LPS-administered group. In addition, a mouse to which physiological saline was administered instead of LPS was prepared and used as a control group. Subsequently, the LPS-administered group was divided into two groups, in which 1 hour after the administration of LPS, Compound No. 2 was subcutaneously administered at a dose of 5 mg/kg to the dorsal region of mice of one group which was then served as an LPS+No. 2-administered group. Subsequently, 5 hours after the administration of Compound No. 2, mice of each group were sacrificed and the liver was harvested.
For the liver of mice of each group, the nuclear abundance of the p65 protein, which is one of the constituent proteins of NF-κB, was quantified by Western blotting. FIG. 11B is a graph showing the quantitative results of the p65 protein.

[3] = test system: neuropathic pain model mouse; experiment: Neuropathic pain model constructed by cancer transplantation; format: in vivo; conditions: tumor-bearing mice 2 weeks after cancer transplantation, 15 mg/kg subcutaneous, at 4, 6 and 8 hours
Experimental: The neuropathic pain model constructed by cancer transplantation activates NF-κB. Therefore, a dose of 15 mg/kg of Compound No. 2 was subcutaneously administered to a model mouse in which the […] was carried out at 2 weeks after cancer transplantation and the pain intensity was measured to confirm that pain was induced.

STAT5 protein = experiment: Nuclear abundance of STAT5 protein in NIH3T3 cells (Western blotting); format: cell-based, mouse; conditions: NIH3T3 cells, 2.5, 5 and 10 μM, 24 hours, vs control
Experimental: Compound No. 2 or DMSO (control) at final concentrations of 2.5, 5 and 10 μM was added to the medium of NIH3T3 cells, which are mouse fibroblasts. Subsequently, the cells were recovered after 24 hours, the nuclear protein was prepared, and the abundance of the STAT5 protein was measured by Western blotting.

- IC50 (G0S2 promoter; Mus musculus, 24 h): 2250 nM
- IC50 (G0S2 promoter): 2310 nM
SMILES: CCCCCCNC(=N)NCc1ccccc1 [Compound No. 2]
- G0S2 promoter (−2030→+10) activity (relative value) [1]: less than ½
- expression level of nuclear receptor RARα mRNA [2]: no change
- expression level of Ccl2 mRNA in the liver (Ccl2 mRNA; LPS 10 μg/mouse tail vein, 5 mg/kg subcutaneous 1 hour after LPS, liver 5 hours later, vs LPS group): significantly decreased
- expression of Ccl2 mRNA in the liver (Ccl2 mRNA; LPS 25 μg tail vein, compound 5 mg/kg tail vein 30 minutes after LPS, liver at 6 hours): significantly inhibited
- nuclear abundance of the p65 protein in the liver (p65 protein (NF-κB)): significantly decreased
- pain intensity (PWT) over time [3]: significantly relieved
- nuclear abundance of the STAT5 protein (STAT5 protein): decreased in a dose-dependent manner
